Organism: Rattus norvegicus
Test: DrugMatrix - Regimen: Daily Repeat
Format: toxicity, organism-based, Sprague-Dawley
Parameters: regimen Daily Repeat, gender Male, age 6-8 weeks
Settings: in vivo, po, route oral GAVAGE, […]; for BASOPHIL / EOSINOPHIL / ERYTHROCYTE COUNT / HEMATOCRIT / HEMOGLOBIN / LEUKOCYTE COUNT / LYMPHOCYTE / MEAN CORPUSCULAR HEMOGLOBIN / MEAN CORPUSCULAR HEMOGLOBIN CONCENTRATION / MEAN CORPUSCULAR VOLUME / MONOCYTE / NEUTROPHIL / PLATELET COUNT: tissue Blood; for ALANINE AMINOTRANSFERASE / ALBUMIN / ALKALINE PHOSPHATASE / ASPARTATE AMINOTRANSFERASE / BLOOD UREA NITROGEN / CARBON DIOXIDE / CHLORIDE / CHOLESTEROL / CREATINE PHOSPHOKINASE / CREATININE / GLUCOSE / LACTATE DEHYDROGENASE / LIPASE / PHOSPHORUS / POTASSIUM / SODIUM / TOTAL BILIRUBIN / TOTAL PROTEIN / URIC ACID: tissue Plasma
[1] = 100 mg/kg, 72 h, dose level Low, time 3 day
[2] = 100 mg/kg, 120 h, dose level Low, time 5 day
[3] = 1200 mg/kg, 72 h, dose level High, time 3 day
[4] = 1200 mg/kg, 120 h, dose level High, time 5 day

Cc1c(C)c2c(c(C)c1O)CCC(C)(COc1ccc(CC3SC(=O)NC3=O)cc1)O2 (stereo not drawn) [TROGLITAZONE]
BASOPHIL [1]: 0%
EOSINOPHIL [1]: 1%
ERYTHROCYTE COUNT [1]: 6.97 x10E6/uL
HEMATOCRIT [1]: 42.83%
HEMOGLOBIN [1]: 14.33 G/DL
LEUKOCYTE COUNT [1]: 7.7 x10E3/uL
LYMPHOCYTE [1]: 77.67%
MEAN CORPUSCULAR HEMOGLOBIN [1]: 20.57 pg
MEAN CORPUSCULAR HEMOGLOBIN CONCENTRATION [1]: 33.5 G/DL
MEAN CORPUSCULAR VOLUME [1]: 61.4 fL
MONOCYTE [1]: 3%
NEUTROPHIL [1]: 18.33%
PLATELET COUNT [1]: 1143 x10E3/uL
ALANINE AMINOTRANSFERASE [1]: 57.67 u/L
ALBUMIN [1]: 4.33 G/DL
ALKALINE PHOSPHATASE [1]: 396.67 u/L
ASPARTATE AMINOTRANSFERASE [1]: 112.67 u/L
BLOOD UREA NITROGEN [1]: 14.67 mg/dL
CARBON DIOXIDE [1]: 24.67 mmol/L
CHLORIDE [1]: 103.33 MEQ/L
CHOLESTEROL [1]: 74.67 mg/dL
CREATINE PHOSPHOKINASE [1]: 585.67 u/L
CREATININE [1]: 0.3 mg/dL
GLUCOSE [1]: 141 mg/dL
LACTATE DEHYDROGENASE [1]: 938.33 u/L
LIPASE [1]: 10 u/L
PHOSPHORUS [1]: 8.83 mg/dL
POTASSIUM [1]: 5.6 MEQ/L
SODIUM [1]: 144.33 MEQ/L
TOTAL BILIRUBIN [1]: 0.1 mg/dL
TOTAL PROTEIN [1]: 5.83 G/DL
URIC ACID [1]: 1.2 mg/dL
BASOPHIL [2]: 0.33%
EOSINOPHIL [2]: 0.67%
ERYTHROCYTE COUNT [2]: 7.13 x10E6/uL
HEMATOCRIT [2]: 43.8%
HEMOGLOBIN [2]: 14.4 G/DL
LEUKOCYTE COUNT [2]: 13.53 x10E3/uL
LYMPHOCYTE [2]: 82.33%
MEAN CORPUSCULAR HEMOGLOBIN [2]: 20.2 pg
MEAN CORPUSCULAR HEMOGLOBIN CONCENTRATION [2]: 32.87 G/DL
MEAN CORPUSCULAR VOLUME [2]: 61.5 fL
MONOCYTE [2]: 1.67%
NEUTROPHIL [2]: 15.67%
PLATELET COUNT [2]: 873.33 x10E3/uL
ALANINE AMINOTRANSFERASE [2]: 66.67 u/L
ALBUMIN [2]: 4.27 G/DL
ALKALINE PHOSPHATASE [2]: 446.67 u/L
ASPARTATE AMINOTRANSFERASE [2]: 84.33 u/L
BLOOD UREA NITROGEN [2]: 15 mg/dL
CARBON DIOXIDE [2]: 23.67 mmol/L
CHLORIDE [2]: 99.67 MEQ/L
CHOLESTEROL [2]: 63.67 mg/dL
CREATINE PHOSPHOKINASE [2]: 419.67 u/L
CREATININE [2]: 0.3 mg/dL
GLUCOSE [2]: 149 mg/dL
LACTATE DEHYDROGENASE [2]: 313.33 u/L
LIPASE [2]: 9.33 u/L
PHOSPHORUS [2]: 9.73 mg/dL
POTASSIUM [2]: 5.57 MEQ/L
SODIUM [2]: 139.67 MEQ/L
TOTAL BILIRUBIN [2]: 0.0667 mg/dL
TOTAL PROTEIN [2]: 5.8 G/DL
URIC ACID [2]: 0.87 mg/dL
BASOPHIL [3]: 0%
EOSINOPHIL [3]: 1%
ERYTHROCYTE COUNT [3]: 7.21 x10E6/uL
HEMATOCRIT [3]: 43.6%
HEMOGLOBIN [3]: 14.63 G/DL
LEUKOCYTE COUNT [3]: 6.47 x10E3/uL
LYMPHOCYTE [3]: 79.33%
MEAN CORPUSCULAR HEMOGLOBIN [3]: 20.33 pg
MEAN CORPUSCULAR HEMOGLOBIN CONCENTRATION [3]: 33.6 G/DL
MEAN CORPUSCULAR VOLUME [3]: 60.5 fL
MONOCYTE [3]: 2.67%
NEUTROPHIL [3]: 16.67%
PLATELET COUNT [3]: 1107 x10E3/uL
ALANINE AMINOTRANSFERASE [3]: 85.33 u/L
ALBUMIN [3]: 4.53 G/DL
ALKALINE PHOSPHATASE [3]: 481.33 u/L
ASPARTATE AMINOTRANSFERASE [3]: 92.33 u/L
BLOOD UREA NITROGEN [3]: 14.67 mg/dL
CARBON DIOXIDE [3]: 23 mmol/L
CHLORIDE [3]: 104 MEQ/L
CHOLESTEROL [3]: 65.33 mg/dL
CREATINE PHOSPHOKINASE [3]: 471 u/L
CREATININE [3]: 0.3 mg/dL
GLUCOSE [3]: 140.33 mg/dL
LACTATE DEHYDROGENASE [3]: 332.33 u/L
LIPASE [3]: 9.33 u/L
PHOSPHORUS [3]: 8.43 mg/dL
POTASSIUM [3]: 5.33 MEQ/L
SODIUM [3]: 146 MEQ/L
TOTAL BILIRUBIN [3]: 0.1 mg/dL
TOTAL PROTEIN [3]: 6 G/DL
URIC ACID [3]: 0.97 mg/dL
BASOPHIL [4]: 0%
EOSINOPHIL [4]: 1%
ERYTHROCYTE COUNT [4]: 6.94 x10E6/uL
HEMATOCRIT [4]: 42.1%
HEMOGLOBIN [4]: 13.63 G/DL
LEUKOCYTE COUNT [4]: 9.2 x10E3/uL
LYMPHOCYTE [4]: 81%
MEAN CORPUSCULAR HEMOGLOBIN [4]: 19.63 pg
MEAN CORPUSCULAR HEMOGLOBIN CONCENTRATION [4]: 32.4 G/DL
MEAN CORPUSCULAR VOLUME [4]: 60.63 fL
MONOCYTE [4]: 2.33%
NEUTROPHIL [4]: 16%
PLATELET COUNT [4]: 801.33 x10E3/uL
ALANINE AMINOTRANSFERASE [4]: 58 u/L
ALBUMIN [4]: 4.3 G/DL
ALKALINE PHOSPHATASE [4]: 406.67 u/L
ASPARTATE AMINOTRANSFERASE [4]: 77.33 u/L
BLOOD UREA NITROGEN [4]: 16 mg/dL
CARBON DIOXIDE [4]: 25 mmol/L
CHLORIDE [4]: 99.33 MEQ/L
CHOLESTEROL [4]: 64.33 mg/dL
CREATINE PHOSPHOKINASE [4]: 451.67 u/L
CREATININE [4]: 0.3 mg/dL
GLUCOSE [4]: 149 mg/dL
LACTATE DEHYDROGENASE [4]: 118.67 u/L
LIPASE [4]: 8.67 u/L
PHOSPHORUS [4]: 9.07 mg/dL
POTASSIUM [4]: 5.67 MEQ/L
SODIUM [4]: 138 MEQ/L
TOTAL BILIRUBIN [4]: 0.1 mg/dL
TOTAL PROTEIN [4]: 5.77 G/DL
URIC ACID [4]: 1.1 mg/dL
